Biological target: T1, IL-17A (Homo sapiens, UniProt Q16552)
T1 sequence (Q16552 24-155): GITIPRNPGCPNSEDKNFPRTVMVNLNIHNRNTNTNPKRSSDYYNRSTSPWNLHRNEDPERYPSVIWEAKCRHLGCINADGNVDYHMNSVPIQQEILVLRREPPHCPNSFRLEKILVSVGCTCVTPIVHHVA
Test: Inhibition of IL-17A induced IL-6 release from dermal fibroblast cell line (HDF cell line assay)
Assay type: cell-based
Conditions: HDF cells stimulated with IL-17A 50 pM + TNFα 25 pM; IL-6 measured by HTRF
Description: Inhibition of IL-17A Induced IL-6 Release from Dermal Fibroblast Cell Line
The purpose of this assay is to test the neutralising ability to IL-17 proteins, in a human primary cell system. Stimulation of normal human dermal fibroblasts (HDF) with IL-17 alone produces only a very weak signal but in combination with certain other cytokines, such as TNFα, a synergistic effect can be seen in the production of inflammatory cytokines, i.e. IL-6.
HDFs were stimulated with IL-17A (50 pM) in combination with TNF-α (25 pM). The resultant IL-6 response was then measured using a homogenous time-resolved FRET kit from Cisbio. The kit utilises two monoclonal antibodies, one labelled with Eu-Cryptate (Donor) and the second with d2 or XL665 (Acceptor). The intensity of the signal is proportional to the concentration of IL-6 present in the sample (Ratio is calculated by 665/620×104).
The ability of a compound to inhibit IL-17 induced IL-6 release from human dermal fibroblasts is measured in this assay.
HDF cells (Sigma #106-05n) were cultured in complete media (DMEM+10% FCS+2 mM L-glutamine) and maintained in a tissue culture flask using standard techniques. Cells were harvested from the tissue culture flask on the morning of the assay using TrypLE (Invitrogen #12605036). The TrypLE was neutralised using complete medium (45 mL) and the cells were centrifuged at 300×g for 3 minutes. The cells were re-suspended in complete media (5 mL) counted and adjusted to a concentration of 3.125×10^4 cells/mL before being added to the 384 well assay plate (Corning #3701) at 40 μL per well. The cells were left for a minimum of three hours, at 37° C./5% CO2, to adhere to the plate.
Compounds were serially diluted in DMSO before receiving an aqueous dilution into a 384 well dilution plate (Greiner #781281), where 5 μL from the titration plate was transferred to 45 μL of complete media and mixed to give a solution containing 10% DMSO.
Mixtures of TNFα and IL-17 cytokine were prepared in complete media to final concentrations of TNFα 25 pM/IL-17A 50 pM, then 30 μL of the solution was added to a 384 well reagent plate (Greiner #781281).
10 μL from the aqueous dilution plate was transferred to the reagent plate containing 30 μL of the diluted cytokines, to give a 2.5% DMSO solution. The compounds were incubated with the cytokine mixtures for 5 h at 37° C. […]
From the Cisbio IL-6 FRET kit (Cisbio #62IL6PEB) europium cryptate and Alexa 665 were diluted in reconstitution buffer and mixed 1:1, as per kit insert. […] The mixture was incubated at room temperature for 3 h with gentle shaking (<400 rpm) before being read on a Synergy Neo 2 plate reader (Excitation: 330 nm; Emission: 615/645 nm).

SMILES: [2H]C([2H])([2H])O[C@H]1CCN(C(=O)[C@@H]2CCC(F)(F)CO2)[C@@H](c2cnn3cc([C@@H](NC(=O)c4ccnn4C)C4CCC(F)(F)CC4)nc3n2)C1 (single isomer, unassigned) [Example 1, N—[(S)-(4,4-Difluorocyclohexyl)(3-{(2R,4S or 2S,4R)-1-[(2S)-5,5-difluorotetrahydro-pyran-2-carbonyl]-4-(trideuteriomethoxy)piperidin-2-yl}imidazo[1,2-bl[1,2,4]triazin-6-yl)methyl]-2-methylpyrazole-3-carboxamide]
- IC50: 39.8 nM

SMILES: CO[C@H]1CCN(C(=O)[C@@H]2CCC(F)(F)CO2)[C@@H](c2cnn3cc([C@@H](NC(=O)c4ccnn4C)C4CCC(F)(F)CC4)nc3n2)C1 (single isomer, unassigned) [Example 3, N—[(S)-(4,4-Difluorocyclohexyl)(3-{(2R,4S or 2S,4R)-1-[(2S)-5,5-difluorotetrahydro-pyran-2-carbonyl]-4-methoxypiperidin-2-yl}imidazo[1,2-b][1,2,4]triazin-6-yl)methyl]-2-methylpyrazole-3-carboxamide]
- IC50: 39.8 nM

SMILES: CO[C@H]1CCN(C(=O)[C@@H]2CCC(F)(F)CO2)[C@H](c2cnn3cc(C(NC(=O)c4ccnn4C)C4CCC(F)(F)CC4)nc3n2)C1 (single isomer, unassigned) [Example 4, N—[(S)-(4,4-Difluorocyclohexyl)(3-{(2S,4S or 2R,4R)-1-[(2S)-5,5-difluorotetrahydro-pyran-2-carbonyl]-4-methoxypiperidin-2-yl}imidazo[1,2-bl[1,2,4]triazin-6-yl)methyl]-2-methylpyrazole-3-carboxamide]
- IC50: 3.16 nM

SMILES: [2H]C([2H])([2H])O[C@H]1CCN(C(=O)[C@@H]2CCC(F)(F)CO2)[C@H](c2cnn3cc(C(NC(=O)c4ccnn4C)C4CCC(F)(F)CC4)nc3n2)C1 (single isomer, unassigned) [Example 2, N—[(S)-(4,4-Difluorocyclohexyl)(3-{(2S,4S or 2R,4R)-1-[(2S)-5,5-difluorotetrahydro-pyran-2-carbonyl]-4-(trideuteriomethoxy)piperidin-2-yl}imidazo[1,2-bl[1,2,4]triazin-6-yl)methyl]-2-methylpyrazole-3-carboxamide]
- IC50: 3.98 nM
